Measurements reported in EP2465840A1, “Terpene ether” (CABB GmbH, priority 2010, dated 2012).
“Also recorded” adds a separate entry of the source.

Legend:
Assay type in all cases: physicochemical
[1] = Foam height and foam stability of formulation; conditions: for h1: Schaumhöhe 5 Minuten nach dem Mischen; for h1 / h0: Lösung mit 0,5 % WAS; for h0: Schaumhöhe eine Minute nach dem Mischen; for Stabilität: Schaumstabilität (h1/h0)*100
Experimental: Die Schaumhöhe der Formulierungen wurde nach folgender Methode ermittelt: In einem 400 ml Becher wurden 100 g einer wässrigen Lösung mit 0,5 % WAS hergestellt. Für eine Minute wurde die Lösung bei […] runden […] wurde die […] Minute […]0) und 5 […]. Die Schaumstabilität in % ergibt sich dann über (h1/h0)*100.

[2] = Visual evaluation of foam (foam appearance, bubble size); parameters: key to Blasengröße nach 1 min. / Blasengröße nach 5 min.: klein (1); mittel (2); mittel-groß (3); groß (4); sehr groß (5); key to Aussehen des Schaums nach 1 min. / Aussehen des Schaums nach 5 min.: verschwindend (1); locker (2); mittelkompakt (3); sehr kompakt (4)
Experimental: Die Qualität des Schaums wurde visuell nach der folgenden Methode festgestellt: 100 g der Lösung mit 0,5 % WAS wurden in einen 250 ml Glaszylinder mit Schraubverschluss und einem Innendurchmesser von 35 mm überführt. Der Zylinder wurde 10 mal gedreht und die Blasengröße und die Schaumkompaktheit wurden nach einer Minute nach dem Mischen und nach 5 Minuten ermittelt. Dabei erfolgte die Beurteilung auf der Grundlage der folgenden beschreibenden Parameter:
Aussehen des Schaums: verschwindend (1), locker (2), mittelkompakt (3), sehr kompakt (4)
Blasengröße: klein (1), mittel (2), mittel-groß (3), groß (4), sehr groß (5) Tabelle 4: […]

[3] = Brookfield viscosity (25°C) of cleaning formulation 24 h after addition of terpene ether
Experimental: Im Rahmen der vorliegenden Erfindung wird die Brookfield-Viskosität einer wässrigen Zusammensetzung vorzugsweise mittels einem RTV Brookfield-Viskosimeter bei 25°C ermittelt, besonders bevorzugt mit einer Spindel # 3 oder # 4.
Die in Tabelle 1 angegebene Reinigungsformulierung wurde untersucht. Tabelle 1: Reinigungsformulierung (WAS 15 %)
Zu dieser Formulierung wurden NP 1 oder NP 27 gegeben. Die gemessenen Brookfield-Viskositätswerte nach 24 Stunden werden in Tabelle 2 und 3 zusammengefasst. Tabelle 2: Brookfield-Viskosität (25°C)
Zu dieser Formulierung wurden NP 1 oder NP 27 sowie danach Natriumchlorid gegeben. Die gemessenen Brookfield-Viskositätswerte nach 24 Stunden werden in den folgenden Tabellen zusammengefasst. Tabelle 13: Brookfield-Viskosität (25°C)

[4] = Appearance of cleaning formulation after 24 h
[5] = pH of cleaning formulation after addition of terpene ether
[6] = Reinigungsformulierung enthaltend Coco Glucosid, 0,5 %
[7] = Reinigungsformulierung enthaltend Coco Glucosid, 1 %
[8] = Reinigungsformulierung enthaltend Coco Glucosid, 5 %
[9] = Reinigungsformulierung enthaltend Dinatriumlaurylsuccinat (wässrig), 0,5 %
[10] = Reinigungsformulierung enthaltend Dinatriumlaurylsuccinat (wässrig), 1 %
[11] = Reinigungsformulierung enthaltend Dinatriumlaurylsuccinat (wässrig), 5 %
[12] = Reinigungsformulierung enthaltend Coco Glucosid, +0,5 %
[13] = Reinigungsformulierung enthaltend Coco Glucosid, +1 %
[14] = Reinigungsformulierung enthaltend Coco Glucosid, +5 %
[15] = Reinigungsformulierung enthaltend Dinatriumlaurylsuccinat (wässrig), +0,5 %
[16] = Reinigungsformulierung enthaltend Dinatriumlaurylsuccinat (wässrig), +1 %
[17] = Reinigungsformulierung enthaltend Dinatriumlaurylsuccinat (wässrig), +5 %
[18] = Reinigungsformulierung enthaltend Dinatriumlaurylsuccinat (wässrig), +0,5 %, nach 24 Stunden
[19] = Reinigungsformulierung enthaltend Dinatriumlaurylsuccinat (wässrig), +1 %, nach 24 Stunden
[20] = Reinigungsformulierung enthaltend Dinatriumlaurylsuccinat (wässrig), +5 %, nach 24 Stunden
[21] = Reinigungsformulierung enthaltend Natriumlaurylethersulfat, Dinatriumcocoamphodiacetat, 0,5 % NaCl, +0,5 %, nach 24 Stunden
[22] = Reinigungsformulierung enthaltend Natriumlaurylethersulfat, Dinatriumcocoamphodiacetat, 0,5 % NaCl, +0,25 %, nach 24 Stunden
[23] = Reinigungsformulierung enthaltend Natriumlaurylethersulfat, Dinatriumcocoamphodiacetat, 0,5 % NaCl, +1 %, nach 24 Stunden
[24] = Reinigungsformulierung enthaltend Natriumlaurylethersulfat, Dinatriumcocoamphodiacetat, 0,5 % NaCl, +2 %, nach 24 Stunden
[25] = Reinigungsformulierung enthaltend Natriumlaurylethersulfat, Dinatriumcocoamphodiacetat, 1 % NaCl, +0,5 %, nach 24 Stunden
[26] = Reinigungsformulierung enthaltend Natriumlaurylethersulfat, Dinatriumcocoamphodiacetat, 1 % NaCl, +0,25 %, nach 24 Stunden
[27] = Reinigungsformulierung enthaltend Natriumlaurylethersulfat, Dinatriumcocoamphodiacetat, 1 % NaCl, +1 %, nach 24 Stunden
[28] = Reinigungsformulierung enthaltend Natriumlaurylethersulfat, Dinatriumcocoamphodiacetat, 1 % NaCl, +2 %, nach 24 Stunden
[29] = Reinigungsformulierung enthaltend Natriumlaurylethersulfat, Dinatriumcocoamphodiacetat, +0,5 %, nach 24 Stunden
[30] = Reinigungsformulierung enthaltend Natriumlaurylethersulfat, Dinatriumcocoamphodiacetat, +0,25 %, nach 24 Stunden
[31] = Reinigungsformulierung enthaltend Natriumlaurylethersulfat, Dinatriumcocoamphodiacetat, +1 %, nach 24 Stunden
[32] = Reinigungsformulierung enthaltend Natriumlaurylethersulfat, Dinatriumcocoamphodiacetat, +2 %, nach 24 Stunden

CC1(C)C2CCC1(C)C(OCC(O)CO)C2 (stereo not drawn) [NP 1, Glycerin-isobornylether]
h1 [1, 6]: 200 mm | h0 [1, 6]: 230 mm | Stabilität [1, 6]: 87% | h1 [1, 7]: 210 mm | h0 [1, 7]: 235 mm | Stabilität [1, 7]: 89% | h1 [1, 8]: 230 mm | h0 [1, 8]: 260 mm | Stabilität [1, 8]: 88% | h1 [1, 9]: 220 mm | h0 [1, 9]: 245 mm | Stabilität [1, 9]: 90% | h1 [1, 10]: 225 mm | h0 [1, 10]: 250 mm | Stabilität [1, 10]: 90% | h1 [1, 11]: 225 mm | h0 [1, 11]: 250 mm | Stabilität [1, 11]: 90% | Aussehen des Schaums nach 1 min. [2, 12]: 3 | Aussehen des Schaums nach 5 min. [2, 12]: 1 | Blasengröße nach 1 min. [2, 12]: 3 | Blasengröße nach 5 min. [2, 12]: 5 | Aussehen des Schaums nach 1 min. [2, 13]: 3 | Aussehen des Schaums nach 5 min. [2, 13]: 1 | Blasengröße nach 1 min. [2, 13]: 3 | Blasengröße nach 5 min. [2, 13]: 5 | Aussehen des Schaums nach 1 min. [2, 14]: 3 | Aussehen des Schaums nach 5 min. [2, 14]: 1 | Blasengröße nach 1 min. [2, 14]: 3 | Blasengröße nach 5 min. [2, 14]: 5 | Aussehen des Schaums nach 1 min. [2, 15]: 3 | Aussehen des Schaums nach 5 min. [2, 15]: 2 | Blasengröße nach 1 min. [2, 15]: 3 | Blasengröße nach 5 min. [2, 15]: 4 | Aussehen des Schaums nach 1 min. [2, 16]: 3 | Aussehen des Schaums nach 5 min. [2, 16]: 2 | Blasengröße nach 1 min. [2, 16]: 3 | Blasengröße nach 5 min. [2, 16]: 4 | Aussehen des Schaums nach 1 min. [2, 17]: 3 | Aussehen des Schaums nach 5 min. [2, 17]: 1 | Blasengröße nach 1 min. [2, 17]: 4 | Blasengröße nach 5 min. [2, 17]: 5 | BF-Viskosität (2,5 rpm) [3, 12]: 18200 mPas | BF-Viskosität (5 rpm) [3, 12]: 17800 mPas | BF-Viskosität (2,5 rpm) [3, 13]: 3400 mPas | BF-Viskosität (5 rpm) [3, 13]: 3300 mPas | BF-Viskosität (2,5 rpm) [3, 14]: 1600 mPas | BF-Viskosität (5 rpm) [3, 14]: 1100 mPas | BF-Viskosität (2,5 rpm) [3, 18]: 6200 mPas | BF-Viskosität (5 rpm) [3, 18]: 6100 mPas | BF-Viskosität (2,5 rpm) [3, 19]: 17600 mPas | BF-Viskosität (5 rpm) [3, 19]: 17200 mPas | BF-Viskosität (2,5 rpm) [3, 20]: 3800 mPas | BF-Viskosität (5 rpm) [3, 20]: 1800 mPas | BF-Viskosität (2,5 rpm) [3, 21]: 22800 mPas | BF-Viskosität (5 rpm) [3, 21]: 21000 mPas | BF-Viskosität (2,5 rpm) [3, 22]: 17200 mPas | BF-Viskosität (5 rpm) [3, 22]: 16100 mPas | BF-Viskosität (2,5 rpm) [3, 23]: 32000 mPas | BF-Viskosität (5 rpm) [3, 23]: 29600 mPas | BF-Viskosität (2,5 rpm) [3, 24]: 12800 mPas | BF-Viskosität (5 rpm) [3, 24]: 12600 mPas | BF-Viskosität (2,5 rpm) [3, 25]: 37600 mPas | BF-Viskosität (5 rpm) [3, 25]: 33200 mPas | BF-Viskosität (2,5 rpm) [3, 26]: 31200 mPas | BF-Viskosität (5 rpm) [3, 26]: 27600 mPas | BF-Viskosität (2,5 rpm) [3, 27]: 38400 mPas | BF-Viskosität (5 rpm) [3, 27]: 36000 mPas | BF-Viskosität (2,5 rpm) [3, 28]: 4400 mPas | BF-Viskosität (5 rpm) [3, 28]: 4200 mPas | BF-Viskosität (2,5 rpm) [3, 29]: 10400 mPas | BF-Viskosität (5 rpm) [3, 29]: 10200 mPas | BF-Viskosität (2,5 rpm) [3, 30]: 7200 mPas | BF-Viskosität (5 rpm) [3, 30]: 7200 mPas | BF-Viskosität (2,5 rpm) [3, 31]: 22800 mPas | BF-Viskosität (5 rpm) [3, 31]: 22000 mPas | BF-Viskosität (2,5 rpm) [3, 32]: 18400 mPas | BF-Viskosität (5 rpm) [3, 32]: 18200 mPas | Aussehen nach 24 h [4, 12]: transparent; also recorded: Gel-flüssig | Aussehen nach 24 h [4, 13]: transparent; also recorded: flüssig | Aussehen nach 24 h [4, 14]: weiß and flüssig | Aussehen nach 24 h [4, 15]: transparent; also recorded: flüssig | Aussehen nach 24 h [4, 16]: transparent; also recorded: Gel-flüssig | Aussehen nach 24 h [4, 17]: weiß and flüssig | Aussehen nach 24 h ([4]; Reinigungsformulierung enthaltend Natriumlaurylethersulfat, Dinatriumcocoamphodiacetat, 0,5 % NaCl, +0,5 %): transparent Gel-flüssig | Aussehen nach 24 h ([4]; Reinigungsformulierung enthaltend Natriumlaurylethersulfat, Dinatriumcocoamphodiacetat, 0,5 % NaCl, +0,25 %): transparent Gel-flüssig | Aussehen nach 24 h ([4]; Reinigungsformulierung enthaltend Natriumlaurylethersulfat, Dinatriumcocoamphodiacetat, 0,5 % NaCl, +1 %): transparent Gel | Aussehen nach 24 h ([4]; Reinigungsformulierung enthaltend Natriumlaurylethersulfat, Dinatriumcocoamphodiacetat, 0,5 % NaCl, +2 %): transparent flüssig | Aussehen nach 24 h ([4]; Reinigungsformulierung enthaltend Natriumlaurylethersulfat, Dinatriumcocoamphodiacetat, 1 % NaCl, +0,5 %): transparent Gel | Aussehen nach 24 h ([4]; Reinigungsformulierung enthaltend Natriumlaurylethersulfat, Dinatriumcocoamphodiacetat, 1 % NaCl, +0,25 %): transparent Gel | Aussehen nach 24 h ([4]; Reinigungsformulierung enthaltend Natriumlaurylethersulfat, Dinatriumcocoamphodiacetat, 1 % NaCl, +1 %): transparent Gel | Aussehen nach 24 h ([4]; Reinigungsformulierung enthaltend Natriumlaurylethersulfat, Dinatriumcocoamphodiacetat, 1 % NaCl, +2 %): transparent flüssig | Aussehen nach 24 h ([4]; Reinigungsformulierung enthaltend Natriumlaurylethersulfat, Dinatriumcocoamphodiacetat, +0,5 %): transparent flüssig | Aussehen nach 24 h ([4]; Reinigungsformulierung enthaltend Natriumlaurylethersulfat, Dinatriumcocoamphodiacetat, +0,25 %): transparent flüssig | Aussehen nach 24 h ([4]; Reinigungsformulierung enthaltend Natriumlaurylethersulfat, Dinatriumcocoamphodiacetat, +1 %): transparent Gel-flüssig | Aussehen nach 24 h ([4]; Reinigungsformulierung enthaltend Natriumlaurylethersulfat, Dinatriumcocoamphodiacetat, +2 %): transparent Gel-flüssig | pH [5, 12]: 6 | pH [5, 13]: 6 | pH [5, 14]: 6 | pH [5, 15]: 6,3 | pH [5, 16]: 6,3 | pH [5, 17]: 6,3
